From BigSolDB 2.1

O=C(O)CN(CC(=O)O)CP(=O)(O)O
solubility (mole fraction)
Conditions | 293.15 K | 298.15 K | 303.15 K | 308.15 K | 313.15 K | 318.15 K | 323.15 K | 328.15 K | 333.15 K | 343.15 K
in acetone | 0.000176 | 0.000227 | 0.000273 | 0.000352 | 0.000445 | 0.000543 | – | – | – | –
in ethanol | – | 3.2e-05 | 7.85e-05 | 0.000102 | 0.000139 | 0.000196 | 0.000359 | – | 0.000733 | 0.00176
in ethyl acetate | 0.000528 | 0.000627 | 0.000791 | 0.000906 | 0.00138 | 0.00153 | 0.00176 | – | 0.00263 | 0.00419
in isopropanol | – | 4.94e-05 | 8.19e-05 | 0.000128 | 0.000248 | 0.000344 | 0.000648 | 0.000898 | 0.00131 | 0.00286
in methanol | – | – | 6.27e-05 | 8.57e-05 | 0.000118 | 0.000168 | 0.000243 | 0.000407 | 0.000588 | –
in n-butanol | 0.000113 | 0.000148 | 0.000186 | 0.000246 | 0.000299 | 0.000387 | 0.000831 | – | 0.00159 | 0.00342
in n-hexanol | 0.000966 | 0.00107 | 0.00116 | 0.00137 | 0.00155 | 0.00197 | 0.00233 | – | 0.00337 | 0.00499
in n-pentanol | 0.000125 | 0.000149 | 0.000186 | 0.00023 | 0.000377 | 0.000583 | 0.00105 | – | 0.00195 | 0.00392
in toluene | 0.00035 | 0.000386 | 0.000427 | 0.000645 | 0.00084 | 0.000991 | 0.00157 | – | 0.00248 | 0.0039
